How the values were obtained:
Saccharomyces cerevisiae = assay: Inhibition of yeast alpha-glucosidase assessed as reduction of p-nitrophenol release using p-nitrophenyl-glycoside as substrate at 1000 uM by spectrophotometric analysis
Oryza sativa = assay: Inhibition of rice alpha-glucosidase assessed as reduction of p-nitrophenol release using p-nitrophenyl-glycoside as substrate at 1000 uM by spectrophotometric analysis
[1] = biological target: Lysosomal alpha-glucosidase (Rattus norvegicus) (UniProt Q6P7A9); assay: Inhibition of rat small intestinal maltase assessed as reduction of D-glucose release using maltose as substrate at 1000 uM by colorimetric analysis; assay type: tissue-based; details: Small intestine
[2] = biological target: Sucrase-isomaltase, intestinal (Rattus norvegicus) (UniProt P23739); assay: Inhibition of rat small intestinal sucrase assessed as reduction of p-nitrophenol release using p-nitrophenyl-glycoside as substrate at 1000 uM by spectrophotometric analysis; assay type: tissue-based; details: Small intestine
[3] = Inhibition of almond beta-glucosidase assessed as reduction of p-nitrophenol release using p-nitrophenyl-glycoside as substrate by spectrophotometric analysis; parameters: species or system Prunus dulcis
Bos taurus [4] = species on record: Bos taurus; assay: Inhibition of bovine liver beta-glucosidase assessed as reduction of p-nitrophenol release using p-nitrophenyl-glycoside as substrate at 1000 uM by spectrophotometric analysis
[5] = Inhibition of human lysosomal beta-glucosidase assessed as reduction of p-nitrophenol release using p-nitrophenyl-glycoside as substrate by spectrophotometric analysis; assay type: subcellular, Lysosome
[6] = biological target: Alpha-galactosidase (Coffea arabica) (UniProt Q42656); assay: Inhibition of coffee beans alpha-galactosidase assessed as reduction of p-nitrophenol release using p-nitrophenyl-glycoside as substrate at 1000 uM by spectrophotometric analysis
[7] = Inhibition of bovine liver beta-galactosidase assessed as reduction of p-nitrophenol release using p-nitrophenyl-glycoside as substrate by spectrophotometric analysis; parameters: species or system Bos taurus
[8] = biological target: T1, Alpha-mannosidase (Canavalia ensiformis) (UniProt C0HJB3); assay: Inhibition of jack bean alpha-mannosidase assessed as reduction of p-nitrophenol release using p-nitrophenyl-glycoside as substrate at 1000 uM by spectrophotometric analysis
T1 sequence (whole entry): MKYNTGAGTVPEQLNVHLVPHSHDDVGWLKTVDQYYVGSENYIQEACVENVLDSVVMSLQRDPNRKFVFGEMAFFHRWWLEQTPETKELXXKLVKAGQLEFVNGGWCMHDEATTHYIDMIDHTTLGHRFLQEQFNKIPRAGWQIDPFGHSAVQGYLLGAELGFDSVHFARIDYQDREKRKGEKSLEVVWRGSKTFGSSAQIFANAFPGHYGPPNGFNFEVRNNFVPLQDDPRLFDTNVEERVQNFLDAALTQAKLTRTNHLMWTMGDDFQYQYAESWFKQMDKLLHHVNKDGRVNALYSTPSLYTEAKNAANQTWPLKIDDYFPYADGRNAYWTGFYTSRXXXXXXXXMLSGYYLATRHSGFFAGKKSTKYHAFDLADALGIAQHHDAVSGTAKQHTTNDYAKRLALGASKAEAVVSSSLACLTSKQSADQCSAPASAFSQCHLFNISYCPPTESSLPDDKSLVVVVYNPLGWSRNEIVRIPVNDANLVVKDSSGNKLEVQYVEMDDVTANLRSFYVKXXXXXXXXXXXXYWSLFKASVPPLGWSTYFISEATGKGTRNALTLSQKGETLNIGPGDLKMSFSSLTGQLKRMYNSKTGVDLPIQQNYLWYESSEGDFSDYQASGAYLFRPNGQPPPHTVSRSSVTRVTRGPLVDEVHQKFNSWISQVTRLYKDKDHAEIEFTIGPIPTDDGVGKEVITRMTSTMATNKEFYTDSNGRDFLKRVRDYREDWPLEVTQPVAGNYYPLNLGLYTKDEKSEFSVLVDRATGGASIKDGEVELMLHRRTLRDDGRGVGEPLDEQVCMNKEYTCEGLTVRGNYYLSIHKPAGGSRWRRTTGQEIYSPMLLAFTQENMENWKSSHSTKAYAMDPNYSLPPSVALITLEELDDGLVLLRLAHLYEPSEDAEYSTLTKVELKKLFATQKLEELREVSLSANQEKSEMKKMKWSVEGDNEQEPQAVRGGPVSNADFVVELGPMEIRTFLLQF

Helix pomatia = assay: Inhibition of snail beta-mannosidase assessed as reduction of p-nitrophenol release using p-nitrophenyl-glycoside as substrate at 1000 uM by spectrophotometric analysis
[9] = biological target: T2, Tissue alpha-L-fucosidase (Bos taurus) (UniProt Q2KIM0); assay: Inhibition of bovine kidney alpha-L-fucosidase assessed as reduction of p-nitrophenol release using p-nitrophenyl-glycoside as substrate at 1000 uM by spectrophotometric analysis; assay type: tissue-based
T2 sequence (whole entry): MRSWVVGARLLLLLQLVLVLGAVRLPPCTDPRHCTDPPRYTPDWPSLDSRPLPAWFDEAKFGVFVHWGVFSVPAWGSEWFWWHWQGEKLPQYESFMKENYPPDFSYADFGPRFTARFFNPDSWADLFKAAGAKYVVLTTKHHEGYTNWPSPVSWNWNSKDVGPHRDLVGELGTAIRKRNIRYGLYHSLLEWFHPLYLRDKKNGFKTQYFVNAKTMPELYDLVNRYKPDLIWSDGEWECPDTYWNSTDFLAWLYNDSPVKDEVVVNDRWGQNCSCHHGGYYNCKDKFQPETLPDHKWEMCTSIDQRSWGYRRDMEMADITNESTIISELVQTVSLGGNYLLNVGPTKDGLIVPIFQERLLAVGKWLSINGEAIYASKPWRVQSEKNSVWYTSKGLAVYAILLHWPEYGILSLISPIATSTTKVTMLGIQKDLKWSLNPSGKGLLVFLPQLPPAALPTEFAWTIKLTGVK

Sus scrofa = species on record: Sus scrofa; assay: Inhibition of porcine kidney alpha-trehalase assessed as reduction of p-nitrophenol release using p-nitrophenyl-glycoside as substrate at 1000 uM by spectrophotometric analysis; assay type: tissue-based
Aspergillus niger = assay: Inhibition of Aspergillus niger amyloglucosidase assessed as reduction of p-nitrophenol release using p-nitrophenyl-glycoside as substrate at 1000 uM by spectrophotometric analysis
Penicillium decumbens = assay: Inhibition of Penicillium decumbens alpha-L-rhamnosidase assessed as reduction of p-nitrophenol release using p-nitrophenyl-glycoside as substrate at 1000 uM by spectrophotometric analysis
[10] = Inhibition of Escherichia coli beta-glucuronidase assessed as reduction of p-nitrophenol release using p-nitrophenyl-glycoside as substrate by spectrophotometric analysis
Bos taurus [11] = species on record: Bos taurus; assay: Inhibition of bovine liver beta-glucuronidase assessed as reduction of p-nitrophenol release using p-nitrophenyl-glycoside as substrate at 1000 uM by spectrophotometric analysis
[12] = biological target: Lysosomal alpha-glucosidase (Homo sapiens) (UniProt P10253); assay: Inhibition of human lysosomal alpha-glucosidase assessed as reduction of p-nitrophenol release using p-nitrophenyl-glycoside as substrate at 1000 uM by spectrophotometric analysis; details: Lysosome
[13] = Inhibition of rice alpha-glucosidase assessed as reduction of p-nitrophenol release using p-nitrophenyl-glycoside as substrate by spectrophotometric analysis; parameters: species or system Oryza sativa
Prunus dulcis = assay: Inhibition of almond beta-glucosidase assessed as reduction of p-nitrophenol release using p-nitrophenyl-glycoside as substrate at 1000 uM by spectrophotometric analysis
Escherichia coli = assay: Inhibition of Escherichia coli beta-glucuronidase assessed as reduction of p-nitrophenol release using p-nitrophenyl-glycoside as substrate at 1000 uM by spectrophotometric analysis
[14] = biological target: T3, Lysosomal acid glucosylceramidase (Homo sapiens, UniProt P04062); assay: Inhibition of human GCase
T3 sequence (P04062 whole entry): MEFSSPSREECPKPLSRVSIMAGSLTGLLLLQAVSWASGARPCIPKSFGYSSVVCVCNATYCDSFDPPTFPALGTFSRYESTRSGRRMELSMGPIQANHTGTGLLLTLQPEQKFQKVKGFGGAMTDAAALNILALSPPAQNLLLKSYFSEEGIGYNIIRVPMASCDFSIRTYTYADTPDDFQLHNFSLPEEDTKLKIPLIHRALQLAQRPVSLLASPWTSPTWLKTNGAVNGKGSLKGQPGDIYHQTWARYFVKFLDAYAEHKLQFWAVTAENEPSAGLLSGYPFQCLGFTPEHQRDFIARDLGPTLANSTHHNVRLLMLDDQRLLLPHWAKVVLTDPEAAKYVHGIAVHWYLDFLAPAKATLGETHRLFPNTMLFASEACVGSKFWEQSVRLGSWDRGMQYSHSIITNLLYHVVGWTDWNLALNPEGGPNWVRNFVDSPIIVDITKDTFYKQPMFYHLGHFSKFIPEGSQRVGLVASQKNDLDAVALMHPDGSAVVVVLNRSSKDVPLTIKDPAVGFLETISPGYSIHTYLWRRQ

[15] = biological target: Sucrase-isomaltase, intestinal (Rattus norvegicus, UniProt P23739); assay: Inhibition of rat small intestinal sucrase assessed as reduction of p-nitrophenol release using p-nitrophenyl-glycoside as substrate by spectrophotometric analysis; assay type: tissue-based, Small intestine
[16] = Inhibition of bovine liver beta-glucosidase assessed as reduction of p-nitrophenol release using p-nitrophenyl-glycoside as substrate by spectrophotometric analysis; assay type: tissue-based, Bos taurus
[17] = Inhibition of yeast alpha-glucosidase assessed as reduction of p-nitrophenol release using p-nitrophenyl-glycoside as substrate by spectrophotometric analysis; parameters: species or system Saccharomyces cerevisiae
Homo sapiens = species on record: Homo sapiens; assay: Inhibition of human lysosomal beta-glucosidase assessed as reduction of p-nitrophenol release using p-nitrophenyl-glycoside as substrate at 1000 uM by spectrophotometric analysis; assay type: subcellular; details: Lysosome
Bos taurus [18] = species on record: Bos taurus; assay: Inhibition of bovine liver beta-galactosidase assessed as reduction of p-nitrophenol release using p-nitrophenyl-glycoside as substrate at 1000 uM by spectrophotometric analysis
[19] = Inhibition of porcine kidney alpha-trehalase assessed as reduction of p-nitrophenol release using p-nitrophenyl-glycoside as substrate by spectrophotometric analysis; assay type: tissue-based, Sus scrofa
[20] = biological target: T3, Lysosomal acid glucosylceramidase; assay: Inhibition of human GCase assessed as reduction of 4-methylumbelliferone liberation using 4-methylumbelliferyl-beta-glucopyranoside as substrate preincubated with enzyme for 10 mins followed by substrate addition by fluorescence spectrophotometry

Chain of Lysosomal alpha-glucosidase (Rattus norvegicus) (Q6P7A9 whole entry): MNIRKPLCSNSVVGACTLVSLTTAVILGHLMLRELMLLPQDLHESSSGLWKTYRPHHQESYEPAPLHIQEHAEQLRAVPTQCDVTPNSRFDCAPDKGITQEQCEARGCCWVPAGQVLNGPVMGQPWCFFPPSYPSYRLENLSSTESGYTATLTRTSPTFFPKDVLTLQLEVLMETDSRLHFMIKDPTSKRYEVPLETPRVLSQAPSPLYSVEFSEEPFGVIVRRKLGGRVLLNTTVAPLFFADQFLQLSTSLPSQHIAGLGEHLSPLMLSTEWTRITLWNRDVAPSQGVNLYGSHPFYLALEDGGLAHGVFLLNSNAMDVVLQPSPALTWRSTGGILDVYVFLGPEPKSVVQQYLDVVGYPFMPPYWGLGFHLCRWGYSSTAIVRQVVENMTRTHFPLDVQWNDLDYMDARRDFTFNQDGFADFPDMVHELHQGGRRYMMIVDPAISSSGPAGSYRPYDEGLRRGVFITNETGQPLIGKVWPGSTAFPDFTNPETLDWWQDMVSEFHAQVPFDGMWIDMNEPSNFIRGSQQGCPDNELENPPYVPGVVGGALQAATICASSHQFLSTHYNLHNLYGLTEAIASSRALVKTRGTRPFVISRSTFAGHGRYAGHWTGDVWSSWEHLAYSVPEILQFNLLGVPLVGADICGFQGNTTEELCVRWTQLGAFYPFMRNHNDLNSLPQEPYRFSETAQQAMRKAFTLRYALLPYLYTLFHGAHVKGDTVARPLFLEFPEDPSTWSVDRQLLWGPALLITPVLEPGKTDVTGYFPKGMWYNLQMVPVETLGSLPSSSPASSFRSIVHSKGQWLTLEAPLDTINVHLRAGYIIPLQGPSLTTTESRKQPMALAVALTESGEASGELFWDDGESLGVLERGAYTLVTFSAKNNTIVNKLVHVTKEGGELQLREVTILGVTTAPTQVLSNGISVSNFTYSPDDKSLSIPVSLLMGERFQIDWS
Chain of Alpha-galactosidase (Coffea arabica) (Q42656 16-378 limits assumed): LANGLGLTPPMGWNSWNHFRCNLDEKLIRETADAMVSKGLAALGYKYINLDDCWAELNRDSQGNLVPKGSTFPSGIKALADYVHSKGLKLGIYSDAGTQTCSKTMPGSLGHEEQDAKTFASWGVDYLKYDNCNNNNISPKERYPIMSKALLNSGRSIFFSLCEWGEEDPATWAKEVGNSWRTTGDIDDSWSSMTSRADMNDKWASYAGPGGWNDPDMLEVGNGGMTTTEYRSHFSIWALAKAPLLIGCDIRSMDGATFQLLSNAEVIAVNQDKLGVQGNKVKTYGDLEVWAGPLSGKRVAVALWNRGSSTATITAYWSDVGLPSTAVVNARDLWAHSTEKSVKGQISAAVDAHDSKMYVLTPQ
Chain of Sucrase-isomaltase, intestinal (Rattus norvegicus) (P23739 1-1013 limits assumed): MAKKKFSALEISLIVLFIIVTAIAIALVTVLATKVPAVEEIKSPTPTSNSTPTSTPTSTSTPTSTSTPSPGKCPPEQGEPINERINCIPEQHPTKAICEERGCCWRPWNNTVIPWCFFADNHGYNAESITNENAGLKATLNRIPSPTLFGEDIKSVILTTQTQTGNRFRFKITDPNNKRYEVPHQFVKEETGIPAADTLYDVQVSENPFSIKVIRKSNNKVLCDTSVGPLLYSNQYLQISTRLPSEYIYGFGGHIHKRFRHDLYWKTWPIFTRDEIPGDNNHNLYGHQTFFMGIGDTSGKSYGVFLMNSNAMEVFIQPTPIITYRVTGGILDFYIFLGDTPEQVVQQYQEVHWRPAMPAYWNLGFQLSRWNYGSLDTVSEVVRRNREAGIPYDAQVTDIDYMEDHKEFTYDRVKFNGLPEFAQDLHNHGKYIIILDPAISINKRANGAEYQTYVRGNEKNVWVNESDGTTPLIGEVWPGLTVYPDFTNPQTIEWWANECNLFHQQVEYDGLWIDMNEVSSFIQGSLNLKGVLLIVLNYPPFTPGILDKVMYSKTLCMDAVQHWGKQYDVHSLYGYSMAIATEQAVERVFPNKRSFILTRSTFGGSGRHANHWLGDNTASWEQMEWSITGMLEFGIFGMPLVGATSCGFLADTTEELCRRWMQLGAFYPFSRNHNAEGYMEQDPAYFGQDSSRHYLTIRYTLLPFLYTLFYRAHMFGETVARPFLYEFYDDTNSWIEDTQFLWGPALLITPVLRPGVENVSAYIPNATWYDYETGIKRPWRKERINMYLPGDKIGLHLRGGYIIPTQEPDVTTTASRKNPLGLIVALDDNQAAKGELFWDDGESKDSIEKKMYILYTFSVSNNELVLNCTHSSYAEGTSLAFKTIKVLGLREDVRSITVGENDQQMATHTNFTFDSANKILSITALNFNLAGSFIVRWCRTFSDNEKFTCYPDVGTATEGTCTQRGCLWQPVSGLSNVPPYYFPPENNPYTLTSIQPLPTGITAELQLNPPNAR
Chain of Sucrase-isomaltase, intestinal (Rattus norvegicus) (P23739 1014-1841 limits assumed): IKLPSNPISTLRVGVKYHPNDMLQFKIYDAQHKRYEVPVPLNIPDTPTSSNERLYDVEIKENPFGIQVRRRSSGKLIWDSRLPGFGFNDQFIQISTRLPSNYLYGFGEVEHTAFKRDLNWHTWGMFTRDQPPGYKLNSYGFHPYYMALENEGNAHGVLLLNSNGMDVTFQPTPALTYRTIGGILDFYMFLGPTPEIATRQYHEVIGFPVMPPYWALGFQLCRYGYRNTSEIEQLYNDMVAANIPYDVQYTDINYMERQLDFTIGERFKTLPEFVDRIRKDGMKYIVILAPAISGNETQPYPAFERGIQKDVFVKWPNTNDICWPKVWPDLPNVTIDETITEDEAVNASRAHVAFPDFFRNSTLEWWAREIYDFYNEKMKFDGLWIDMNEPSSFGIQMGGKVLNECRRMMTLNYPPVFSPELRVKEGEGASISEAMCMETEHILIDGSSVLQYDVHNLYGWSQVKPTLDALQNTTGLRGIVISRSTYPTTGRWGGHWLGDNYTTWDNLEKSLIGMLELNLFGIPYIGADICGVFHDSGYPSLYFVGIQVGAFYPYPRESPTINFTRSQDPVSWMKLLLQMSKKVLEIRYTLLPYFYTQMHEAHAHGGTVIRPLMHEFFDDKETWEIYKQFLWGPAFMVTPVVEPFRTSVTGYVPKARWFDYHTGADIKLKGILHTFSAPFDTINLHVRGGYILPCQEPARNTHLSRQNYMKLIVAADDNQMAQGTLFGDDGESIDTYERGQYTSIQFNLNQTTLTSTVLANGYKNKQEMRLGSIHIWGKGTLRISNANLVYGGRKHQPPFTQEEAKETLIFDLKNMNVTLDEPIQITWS
Chain of Sucrase-isomaltase, intestinal (P23739 1-1013 limits assumed): as the sequence (P23739 1-1013 limits assumed) above
Chain of Sucrase-isomaltase, intestinal (P23739 1014-1841 limits assumed): as the sequence (P23739 1014-1841 limits assumed) above

| SMILES | inhibition (Saccharomyces cerevisiae) [%] | inhibition (Oryza sativa) [%] | inhibition [1] [%] | IC50 [3] [µM] | inhibition (Bos taurus [4]) [%] | IC50 [5] [nM] | inhibition [6] [%] | IC50 [7] [µM] | inhibition [8] [%] | inhibition (Helix pomatia) [%] | inhibition [9] [%] | inhibition (Sus scrofa) [%] | inhibition (Aspergillus niger) [%] | inhibition (Penicillium decumbens) [%] | IC50 [10] [µM] | inhibition (Bos taurus [11]) [%] | inhibition [12] [%] | IC50 [14] [nM] | other results |
| --- | --- | --- | --- | --- | --- | --- | --- | --- | --- | --- | --- | --- | --- | --- | --- | --- | --- | --- | --- |
| O[C@H]1[C@H](O)CN[C@@H]1c1ccc(-c2ccccc2)cc1 | 10.1 | 19 | 15.8 | 285 | 39.9 | 760 | 0 | 328 | 0 | 9.7 | 0 | 13.1 | 0 | 0 | 281 | 2.3 | 2.9 |  | inhibition [2]: 47.4% |
| O[C@H]1[C@H](O)CN[C@@H]1c1ccccc1 | 0.3 |  | 12.4 |  | 43.7 | 11000 | 8.6 | 441 | 8.3 | 10.1 | 0 | 6.1 | 2 | 0.5 |  | 15 | 29 |  | IC50 [13]: 466 µM; inhibition [2]: 39.9%; inhibition (Prunus dulcis): 3.9%; inhibition (Escherichia coli): 20.3% |
| O[C@@H]1[C@@H](O)CN[C@H]1c1ccccc1 |  |  |  |  |  |  |  |  |  |  |  |  |  |  |  |  |  | 26500 |  |
| CCCCCCO[C@H]1CNC[C@@H](O)[C@@H]1O |  |  |  |  |  |  |  |  |  |  |  |  |  |  |  |  |  | 9 |  |
| O[C@@H]1[C@@H](O)CN[C@H]1c1ccc(-c2ccccc2)cc1 | 4.7 | 10.3 | 28.8 | 234 |  | 1200 | 0.3 | 83 | 0 | 14.9 | 0 | 1.6 | 0 | 6.4 | 418 | 4.2 | 15.6 |  | IC50 [15]: 580 µM; IC50 [16]: 458 µM |
| OC[C@@H]1NCC(O)C1O (single isomer, unassigned) |  |  |  |  | 4.6 |  | 3.9 |  | 0 | 0.5 | 13.3 |  | 25.6 | 1.3 |  | 6.3 |  |  | IC50 [17]: 163 µM; IC50 [13]: 1.9 µM; inhibition (Prunus dulcis): 32.6%; inhibition (Homo sapiens): 16.1%; inhibition (Bos taurus [18]): 8.3%; IC50 [19]: 161 µM; inhibition (Escherichia coli): 8% |
| CCCCCCCCCC1NC[C@@H](O)[C@H](O)[C@H]1O (stereo not given in full) |  |  |  |  |  |  |  |  |  |  |  |  |  |  |  |  |  | 6.8 |  |
| O[C@H]1[C@H](O)CN[C@@H]1CCCc1ccccc1 | 28.5 | 38 |  | 565 | 42.1 | 3100 | 0 | 578 | 20.6 | 5.6 | 6.2 | 5.3 | 0 | 8.3 | 910 | 0.3 | 26.5 |  | IC50 [15]: 264 µM |
| CCCCN1C[C@H](CO)[C@@H](O)[C@H](O)C1 |  |  |  |  |  |  |  |  |  |  |  |  |  |  |  |  |  |  | IC50 [20]: 44 µM |

Source: ChEMBL document CHEMBL5137043, “trans, trans-2-C-Aryl-3,4-dihydroxypyrrolidines as potent and selective β-glucosidase inhibitors: Pharmacological chaperones for Gaucher disease” (Eur J Med Chem, 2022)
